ChEMBL document CHEMBL5303573, “Mapping human microbiome drug metabolism by gut bacteria and their genes” (Nature, 2019)

Tests used:
[1] = The drug is tested on Bifidobacterium longum subsp. Infantis strain: CCUG52486 for biotransformation. The drug concentrations were measured before and after a 12-h incubation by liquid-chromatography-coupled mass spectrometry (LC–MS); details: 2 µM
[2] = The drug is tested on Alistipes indistinctus strain: DSM22520 for biotransformation. The drug concentrations were measured before and after a 12-h incubation by liquid-chromatography-coupled mass spectrometry (LC–MS); details: 2 µM
[3] = The drug is tested on Bacteroides fragilis strain: HMW610 for biotransformation. The drug concentrations were measured before and after a 12-h incubation by liquid-chromatography-coupled mass spectrometry (LC–MS); details: 2 µM
[4] = The drug is tested on Bacteroides pectinophilus strain: ATCC43243 for biotransformation. The drug concentrations were measured before and after a 12-h incubation by liquid-chromatography-coupled mass spectrometry (LC–MS); details: 2 µM
[5] = The drug is tested on Parabacteroides merdae strain: ATCC43184 for biotransformation. The drug concentrations were measured before and after a 12-h incubation by liquid-chromatography-coupled mass spectrometry (LC–MS); details: 2 µM
[6] = The drug is tested on Blautia hansenii strain: DSM20583 for biotransformation. The drug concentrations were measured before and after a 12-h incubation by liquid-chromatography-coupled mass spectrometry (LC–MS); details: 2 µM
[7] = The drug is tested on Clostridium ramosum strain: DSM1402 for biotransformation. The drug concentrations were measured before and after a 12-h incubation by liquid-chromatography-coupled mass spectrometry (LC–MS); details: thomasclavelia ramosa, 2 µM
[8] = The drug is tested on Clostridium symbiosum strain: ATCC14940 for biotransformation. The drug concentrations were measured before and after a 12-h incubation by liquid-chromatography-coupled mass spectrometry (LC–MS); details: 2 µM
[9] = The drug is tested on Eubacterium ventriosum strain: ATCC27560 for biotransformation. The drug concentrations were measured before and after a 12-h incubation by liquid-chromatography-coupled mass spectrometry (LC–MS); assay type: ADME; set-up: dose 2 uM, timepoint 0 vs 12 hours; details: 2 µM
[10] = The drug is tested on Ruminococcus torques strain: ATCC27756 for biotransformation. The drug concentrations were measured before and after a 12-h incubation by liquid-chromatography-coupled mass spectrometry (LC–MS); assay type: ADME; set-up: dose 2 uM, timepoint 0 vs 12 hours; details: 2 µM
[11] = The drug is tested on Enterobacter cancerogenus strain: ATCC35316 for biotransformation. The drug concentrations were measured before and after a 12-h incubation by liquid-chromatography-coupled mass spectrometry (LC–MS); details: 2 µM
[12] = bacteroides fragilis, 12 h, 2 µM
Description: The drug is tested on Bacteroides fragilis strain: DS-208 for biotransformation. The drug concentrations were measured before and after a 12-h incubation by liquid-chromatography-coupled mass spectrometry (LC–MS)

[13] = bacteroides intestinalis, 12 h, 2 µM
Description: The drug is tested on Bacteroides intestinalis strain: DSM17393 for biotransformation. The drug concentrations were measured before and after a 12-h incubation by liquid-chromatography-coupled mass spectrometry (LC–MS)

[14] = bacteroides stercoris, 12 h, 2 µM
Description: The drug is tested on Bacteroides stercoris strain: ATCC43183 for biotransformation. The drug concentrations were measured before and after a 12-h incubation by liquid-chromatography-coupled mass spectrometry (LC–MS)

[15] = anaerostipes sp., 12 h, 2 µM
Description: The drug is tested on Anaerostipes sp. strain: fecal isolate for biotransformation. The drug concentrations were measured before and after a 12-h incubation by liquid-chromatography-coupled mass spectrometry (LC–MS)

[16] = enterocloster bolteae, 12 h, 2 µM
Description: The drug is tested on Clostridium bolteae strain: ATCCBAA-613 for biotransformation. The drug concentrations were measured before and after a 12-h incubation by liquid-chromatography-coupled mass spectrometry (LC–MS)

[17] = The drug is tested on Bacteroides dorei strain: DSM17855 for biotransformation. The drug concentrations were measured before and after a 12-h incubation by liquid-chromatography-coupled mass spectrometry (LC–MS); details: phocaeicola dorei, 2 µM
[18] = The drug is tested on Bacteroides vulgatus strain: ATCC8482 for biotransformation. The drug concentrations were measured before and after a 12-h incubation by liquid-chromatography-coupled mass spectrometry (LC–MS); details: phocaeicola vulgatus, 2 µM
[19] = The drug is tested on Escherichia coli strain: BW25113 for biotransformation. The drug concentrations were measured before and after a 12-h incubation by liquid-chromatography-coupled mass spectrometry (LC–MS); details: 2 µM
[20] = The drug is tested on Clostridium asparagiforme strain: DSM15981 for biotransformation. The drug concentrations were measured before and after a 12-h incubation by liquid-chromatography-coupled mass spectrometry (LC–MS); assay type: ADME; set-up: dose 2 uM, timepoint 0 vs 12 hours; details: enterocloster asparagiformis, 2 µM

SMILES | Bacterial Biotransformation [1] | Bacterial Biotransformation [2] | Bacterial Biotransformation [3] | Bacterial Biotransformation [4] | Bacterial Biotransformation [5] | Bacterial Biotransformation [6] | Bacterial Biotransformation [7] | Bacterial Biotransformation [8] | Bacterial Biotransformation [9] | Bacterial Biotransformation [10] | Bacterial Biotransformation [11] | Bacterial Biotransformation [12] | Bacterial Biotransformation [13] | Bacterial Biotransformation [14] | Bacterial Biotransformation [15] | Bacterial Biotransformation [16] | Bacterial Biotransformation [17] | Bacterial Biotransformation [18] | Bacterial Biotransformation [19] | Bacterial Biotransformation [20]
CC(N)C12CC3CC(CC(C3)C1)C2 (centres undefined) [RIMANTADINE] | Compound NOT metabolized | Compound NOT metabolized | Compound NOT metabolized | Compound NOT metabolized | Compound NOT metabolized | Compound NOT metabolized | Compound NOT metabolized | Compound NOT metabolized | Compound NOT metabolized | Compound NOT metabolized | Compound NOT metabolized | Compound NOT metabolized | Compound NOT metabolized | Compound NOT metabolized | Compound NOT metabolized | Compound NOT metabolized |  |  |  | 
CC1=C(CC(=O)O)c2cc(F)ccc2/C1=C\c1ccc([S+](C)[O-])cc1 (centres undefined) | Compound NOT metabolized | Compound NOT metabolized | Compound NOT metabolized | Compound NOT metabolized | Compound NOT metabolized | Compound NOT metabolized | Compound NOT metabolized | Compound NOT metabolized | Compound NOT metabolized | Compound NOT metabolized | Compound NOT metabolized | Compound NOT metabolized | Compound NOT metabolized | Compound NOT metabolized | Compound NOT metabolized | Compound NOT metabolized | Compound NOT metabolized | Compound NOT metabolized | Compound NOT metabolized | 
OCCOCCN1CCN(C2=Nc3ccccc3Sc3ccccc32)CC1 [QUETIAPINE] | Compound NOT metabolized | Compound NOT metabolized | Compound NOT metabolized | Compound NOT metabolized | Compound NOT metabolized | Compound NOT metabolized |  | Compound NOT metabolized | Compound NOT metabolized | Compound NOT metabolized | Compound NOT metabolized | Compound NOT metabolized | Compound NOT metabolized | Compound NOT metabolized | Compound NOT metabolized | Compound NOT metabolized | Compound NOT metabolized | Compound NOT metabolized | Compound NOT metabolized | 
CN(C)CCc1c[nH]c2ccc(Cn3cncn3)cc12.O=C(O)c1ccccc1 [RIZATRIPTAN BENZOATE] |  | Compound NOT metabolized | Compound NOT metabolized | Compound NOT metabolized |  | Compound NOT metabolized | Compound NOT metabolized | Compound NOT metabolized | Compound NOT metabolized | Compound NOT metabolized | Compound NOT metabolized |  |  |  |  | Compound NOT metabolized | Compound NOT metabolized | Compound NOT metabolized |  | 
C[C@@H](c1ncncc1F)[C@](O)(Cn1cncn1)c1ccc(F)cc1F [VORICONAZOLE] | Compound NOT metabolized | Compound NOT metabolized | Compound metabolized | Compound NOT metabolized | Compound NOT metabolized | Compound NOT metabolized | Compound NOT metabolized | Compound NOT metabolized | Compound NOT metabolized | Compound NOT metabolized | Compound NOT metabolized | Compound metabolized |  |  | Compound NOT metabolized | Compound NOT metabolized | Compound metabolized | Compound metabolized | Compound NOT metabolized | 
Cc1ccc(S(=O)(=O)NC(=O)NN2CCCCCC2)cc1 [TOLAZAMIDE] | Compound metabolized | Compound NOT metabolized | Compound metabolized | Compound metabolized |  | Compound metabolized | Compound NOT metabolized | Compound NOT metabolized | Compound NOT metabolized | Compound NOT metabolized | Compound NOT metabolized | Compound metabolized | Compound NOT metabolized | Compound metabolized | Compound NOT metabolized | Compound NOT metabolized | Compound metabolized | Compound metabolized | Compound NOT metabolized | 
CCN1CCCC1CNC(=O)c1cc(S(N)(=O)=O)ccc1OC (centres undefined) [SULPIRIDE] | Compound NOT metabolized | Compound NOT metabolized | Compound metabolized | Compound NOT metabolized | Compound NOT metabolized | Compound NOT metabolized | Compound NOT metabolized | Compound NOT metabolized | Compound NOT metabolized | Compound NOT metabolized | Compound NOT metabolized |  | Compound NOT metabolized | Compound NOT metabolized | Compound NOT metabolized | Compound NOT metabolized | Compound NOT metabolized | Compound NOT metabolized | Compound NOT metabolized | 
Nc1nc2ccc(OC(F)(F)F)cc2s1 [RILUZOLE] | Compound NOT metabolized | Compound NOT metabolized | Compound metabolized | Compound NOT metabolized | Compound NOT metabolized | Compound metabolized | Compound NOT metabolized | Compound NOT metabolized |  |  | Compound NOT metabolized | Compound metabolized | Compound NOT metabolized | Compound metabolized | Compound NOT metabolized | Compound NOT metabolized | Compound metabolized | Compound NOT metabolized |  | 
C[C@]12CCC(=O)C=C1[C@@H]1C[C@@H]1[C@H]1[C@@H]3[C@@H]4C[C@@H]4[C@@]4(CCC(=O)O4)[C@@]3(C)CC[C@@H]12 [DROSPIRENONE] | Compound NOT metabolized |  | Compound metabolized | Compound NOT metabolized |  |  |  | Compound NOT metabolized | Compound NOT metabolized | Compound NOT metabolized |  | Compound NOT metabolized | Compound NOT metabolized | Compound NOT metabolized | Compound NOT metabolized | Compound NOT metabolized | Compound metabolized | Compound metabolized | Compound NOT metabolized | Compound NOT metabolized
